US20220330549A1, “USE OF N-BENZYLBENZAMIDE-BASED COMPOUND AS HERBICIDE” (Northwest A&F University, priority 2020, published 2022)

Experiments:
Assay type in all cases: in vivo
[1] = test system: Humulus scandens; test: Herbicidal activity test for indoor pre-emergence soil treatment; conditions: 150 g a.i./ha, visual inspection 21 days after treatment
Outline: (§1)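 Pre-emergence test following NY/T 1155.3-2006: weed seeds were sown in moistened neutral sandy loam (≤2% organic matter) and covered with 0.5–2.0 cm of soil. After 24 h, the soil was sprayed with a 10% EC diluted in water at 150 g(a.i.)/ha. Damage was scored visually on a 1–9 scale at 21 days.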

[2] = test system: green bristlegrass; test: as above; design: key: level 1-9; higher = more weed remaining vs blank control; conditions: 150 g a.i./ha, visual inspection 21 days after treatment
Outline: as §1

[3] = test system: Piemarker; test: as above; design: key: level 1-9; higher = more weed remaining vs blank control; conditions: 150 g a.i./ha, visual inspection 21 days after treatment
Outline: as §1

[4] = test system: Barnyard grass; test: as above; design: key: level 1-9; higher = more weed remaining vs blank control; conditions: 150 g a.i./ha, visual inspection 21 days after treatment
Outline: as §1

[5] = test system: Broadleaf weed; test: Post-emergence herbicidal activity test in a paddy field; design: key: level scale; higher level = more weed left vs blank control; conditions: 150 g a.i./ha (penoxsulam control 250 g(a.i.)/h)
Outline: (§2)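 Efficacy was visually estimated 15 and 30 days after spraying, grading weed coverage relative to an untreated neighbouring plot (level 2 = 0 to 2.5%, level 9 = 67.6 to 100%). Treatments were 150 g(a.i.)/ha from 10% emulsifiable concentrates applied at the 4-5 leaf rice stage, four repeats of 50 m^2 each.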

[6] = test system: Cyperaceae; test: as above; design: key: level scale; higher level = more weed left vs blank control; conditions: 150 g a.i./ha (penoxsulam control 250 g(a.i.)/h)
Outline: as §2

[7] = test system: Gramineae; test: as above; design: key: level scale; higher level = more weed left vs blank control; conditions: 150 g a.i./ha (penoxsulam control 250 g(a.i.)/h)
Outline: as §2

[8] = test system: Digitaria sanguinalis; test: Herbicidal activity test for indoor pre-emergence soil treatment; design: key: 1-9 levels; higher = more weed remaining vs blank control; conditions: 150 g a.i./ha, visual inspection 21 days after treatment
Outline: as §1

[9] = test system: Amaranthus retroflexus; test: as above; design: key: 1-9 levels; higher = more weed remaining vs blank control; conditions: 150 g a.i./ha, visual inspection 21 days after treatment
Outline: as §1

[10] = test system: Humulus scandens; test: Herbicidal activity test for indoor post-emergence spraying on stems and leaves; design: key: grade level by weed remaining vs blank control, e.g. 5 = 10.1-15%; conditions: 150 g a.i./ha, visual inspection 21 days after treatment
Outline: (§3)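 Post-emergence stem and leaf spray in an indoor test following NY/T 1155.4-2006, with weeds sown and grown in a greenhouse. Effect scored visually 21 days after treatment as graded levels, each level set by the percentage of weed remaining relative to the blank control area.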

[11] = test system: green bristlegrass; test: as above; design: key: grade level by weed remaining vs blank control, e.g. 5 = 10.1-15%; conditions: 150 g a.i./ha, visual inspection 21 days after treatment
Outline: as §3

[12] = test system: Digitaria sanguinalis; test: as above; design: key: grade level by weed remaining vs blank control, e.g. 5 = 10.1-15%; conditions: 150 g a.i./ha, visual inspection 21 days after treatment
Outline: as §3

[13] = test system: Piemarker; test: as above; design: key: grade level by weed remaining vs blank control, e.g. 5 = 10.1-15%; conditions: 150 g a.i./ha, visual inspection 21 days after treatment
Outline: as §3

[14] = test system: Amaranthus retroflexus; test: as above; design: key: grade level by weed remaining vs blank control, e.g. 5 = 10.1-15%; conditions: 150 g a.i./ha, visual inspection 21 days after treatment
Outline: as §3

[15] = test system: Barnyard grass; test: as above; design: key: grade level by weed remaining vs blank control, e.g. 5 = 10.1-15%; conditions: 150 g a.i./ha, visual inspection 21 days after treatment
Outline: as §3

[16] = test system: green bristlegrass; test: Field test for weed control in a corn field; conditions: 150 g a.i./ha, after treatment
Outline: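 Post-emergence weed control was tested in a corn field following GB/T 17980.42-2000. When the corn had 2 leaves to 5 leaves after sowing, 10% emulsifiable concentrates diluted in water were sprayed at 150 g(a.i.)/ha on 20 m^2 plots, four replicates per treatment. Effects on green bristlegrass were scored on a 1-9 damage scale relative to the blank control area.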

[17] = test system: Acalypha australis; test: Field test for weed control in a corn field; conditions: 150 g a.i./ha, after treatment
Outline: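 Post-emergence field trial in a corn field following GB/T 17980.42-2000. Test compounds were formulated as 10% emulsifiable concentrates, diluted in water, and sprayed at 150 g(a.i.)/ha when corn had 2 to 5 leaves, with 4 replicates on 20 m^2 plots. Mesotrione 25% oil dispersion served as the control agent. Weed control was scored on a 1-9 scale.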

[18] = test system: Digitaria sanguinalis; test: Field test for weed control in a corn field; conditions: 150 g a.i./ha, after treatment
Outline: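 Field trial in a corn field following GB/T 17980.42-2000. Test compounds were formulated as 10% emulsifiable concentrates, diluted in water and sprayed post-emergence at 150 g(a.i.)/ha when corn had 2 to 5 leaves, with 4 replicates on 20 m^2 plots. Control of Digitaria sanguinalis was scored on a 1-9 scale based on weed damage relative to the untreated blank area.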

[19] = test system: Solanum nigrum; test: Field test for weed control in a corn field; conditions: 150 g a.i./ha, 30 days after treatment
Outline: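 Post-emergence weed control was tested in a corn field following GB/T 17980.42-2000. Compounds were made into 10% emulsifiable concentrates, diluted in water and sprayed at 150 g(a.i.)/ha when corn had 2 to 5 leaves after sowing, in 20 m^2 plots with 4 replicates. Effects on Solanum nigrum were graded on a 1-9 scale relative to the blank control area.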

[20] = test system: goosegrass; test: Field test for weed control in a corn field; conditions: 150 g a.i./ha, after treatment
Outline: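 Weed control efficacy against goosegrass was tested in a corn field following GB/T 17980.42-2000. Compounds formulated as 10% emulsifiable concentrates were diluted in water and sprayed post-emergence at 150 g(a.i.)/ha when corn had 2 to 5 leaves, with 4 replicates of 20 m^2 plots. Herbicidal activity was rated on a 1-9 scale by damage symptoms and severity.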

[21] = test system: Amaranthus retroflexus; test: Field test for weed control in a corn field; conditions: 150 g a.i./ha, 30 days after treatment
Outline: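 Field efficacy trial in a corn field following GB/T 17980.42-2000. Test compounds were formulated as 10% emulsifiable concentrates, diluted in water and sprayed post-emergence when corn had 2 to 5 leaves. Each treatment covered 20 m^2 with 4 replicates. A 25% mesotrione oil dispersion served as control. Damage to Amaranthus retroflexus was rated on a 1-9 scale against untreated blank plots.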

[22] = test system: Chenopodium album; test: Field test for weed control in a corn field; conditions: 150 g a.i./ha, after treatment
Outline: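 A corn-field efficacy trial following GB/T 17980.42-2000 tested post-emergence control of Chenopodium album. Test compounds formulated as 10% emulsifiable concentrates were diluted in water and sprayed at 150 g(a.i.)/ha when the corn had 2 leaves to 5 leaves, on 20 m^2 plots with 4 replicates. Herbicidal activity was rated on a 1-9 scale by damage symptoms and severity.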

[23] = test system: Convolvulus arvensis; test: Field test for weed control in a corn field; conditions: 150 g a.i./ha, after treatment
Outline: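 Field trial of weed control against Convolvulus arvensis in corn, run following GB/T 17980.42-2000. Test agents were formulated as 10% emulsifiable concentrates and sprayed in water at 150 g(a.i.)/ha when corn plants had 2 to 5 leaves. Each treatment was replicated 4 times on 20 m^2 plots, and 25% mesotrione oil dispersion served as the control agent.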

[24] = test system: Portulaca oleracea; test: Field test for weed control in a corn field; conditions: 150 g a.i./ha, after treatment
Outline: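 Field efficacy trial in corn following GB/T 17980.42-2000. Test compounds were prepared as 10% emulsifiable concentrates, diluted in water, and sprayed at 150 g(a.i.)/ha when corn had 2 to 5 leaves after sowing. Plots were 20 m^2 with 4 replicates per treatment. Herbicidal activity was scored on a 1-9 scale from weed damage symptoms and severity.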

[25] = test system: nutgrass flatsedge; test: Field test for weed control in a corn field; conditions: 150 g a.i./ha, after treatment
Outline: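 A corn field efficacy trial following GB/T 17980.42-2000 assessed post-emergence control of nutgrass flatsedge. Test compounds were formulated as 10% emulsifiable concentrates, diluted in water, and sprayed at 150 g(a.i.)/ha when the corn had 2 to 5 leaves. Each treatment had 4 replicates on 20 m^2 plots. Herbicidal activity was graded on a 1-9 scale by damage symptoms and severity.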

[26] = test system: Barnyard grass; test: Field test for weed control in a corn field; conditions: 150 g a.i./ha, 30 days after treatment
Outline: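 Corn-field efficacy trial following GB/T 17980.42-2000. Test compounds were formulated as 10% emulsifiable concentrates, diluted in water and sprayed post-emergence at 150 g(a.i.)/ha when corn had 2 to 5 leaves. Each treatment was replicated 4 times on 20 m^2 plots. Barnyard grass control was rated on a 1-9 damage scale.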

COc1ccccc1C(=O)NCc1cccc(F)c1 [Compound A01, N-(3-fluorobenzylamine)-2-methoxybenzamide]
Herbicidal Activity Humulus scandens [1]: 4 (equivalent to 5.1 to 10% of the weed in the blank control area)
Herbicidal Activity Green bristlegrass [2]: 1
Herbicidal Activity Piemarker [3]: 3 (equivalent to 2.6 to 5% of the weed in the blank control area)
Herbicidal Activity Barnyard grass [4]: 1
Herbicidal activity 15 days after treatment Broadleaf weed ([5]; 15 days after treatment): 1
Herbicidal activity 30 days after treatment Broadleaf weed ([5]; 30 days after treatment): 2 (equivalent to 0 to 2.5% of the weed in the blank control area)
Herbicidal activity 15 days after treatment Cyperaceae ([6]; 15 days after treatment): 1
Herbicidal activity 30 days after treatment Cyperaceae ([6]; 30 days after treatment): 2 (equivalent to 0 to 2.5% of the weed in the blank control area)
Herbicidal activity 15 days after treatment Gramineae ([7]; 15 days after treatment): 2 (equivalent to 0 to 2.5% of the weed in the blank control area)
Herbicidal activity 30 days after treatment Gramineae ([7]; 30 days after treatment): 2 (equivalent to 0 to 2.5% of the weed in the blank control area)
Herbicidal Activity Digitaria sanguinalis [8]: 1
Herbicidal Activity Amaranthus retroflexus [9]: 3 (equivalent to 2.6 to 5% of the weed in the blank control area)
Herbicidal Activity Humulus scandens [10]: 1
Herbicidal Activity Green bristlegrass [11]: 1
Herbicidal Activity Digitaria sanguinalis [12]: 1
Herbicidal Activity Piemarker [13]: 1
Herbicidal Activity Amaranthus retroflexus [14]: 1
Herbicidal Activity Barnyard grass [15]: 1
Post-emergence weed control effect, Green bristlegrass [16]: 1
Post-emergence weed control effect, Acalypha australis [17]: 2 (equivalent to 0 to 2.5% of the weed in the blank control area)
Post-emergence weed control effect, Digitaria sanguinalis [18]: 2 (equivalent to 0 to 2.5% of the weed in the blank control area)
Post-emergence weed control effect, Solanum nigrum [19]: 2 (equivalent to 0 to 2.5% of the weed in the blank control area)
Post-emergence weed control effect, Goose grass [20]: 2 (equivalent to 0 to 2.5% of the weed in the blank control area)
Post-emergence weed control effect, Amaranthus retroflexus [21]: 1
Post-emergence weed control effect, Chenopodium album [22]: 1
Post-emergence weed control effect, Convolvulus arvensis [23]: 1
Post-emergence weed control effect, Portulaca oleracea [24]: 1
Post-emergence weed control effect, Nutgrass flatsedge [25]: 2 (equivalent to 0 to 2.5% of the weed in the blank control area)
Post-emergence weed control effect, Barnyard grass [26]: 2 (equivalent to 0 to 2.5% of the weed in the blank control area)
